Key:
[1] = system: mitochondrial complex I (NADH dehydrogenase); experiment: Mitochondrial complex I activity in human dermal fibroblasts, colorimetric assay; assay type: cell-based; conditions: HDFa, 48 hours
Protocol: Inhibition of Mitochondrial Complex I Activity Using an Assay Based on Colorimetric Detection. Human Dermal Fibroblasts from adult (HDFa, Life Technologies) are seeded at a density of 750.000 cells/75 cm^2 flask (one flask per condition) in culture medium M106 with Low Serum Growth Supplement (Life Technologies). Cells are grown during 8 days at 37° C. in 5% CO2 humidified air. Then, medium is removed and cells are treated with scalar dilutions of the peptide […] (PEP-1, H-[SEQ ID. NO. 2]-NH2) at 1, 0.5 and 0.1 mg/ml in culture medium during 48 hours at 37° C. in 5% CO2 humidified air. Non-treated cells incubated in culture medium alone are used as basal conditions. […] After 48 hours of treatment, cells are detached using trypsin and resuspended in 60 ul of Phosphate buffer saline (Sigma). Total protein concentration is measured by a Pierce BCA Protein Assay Kit (BCA Assay, Thermo Scientific) following manufacturer's protocol to adjust the final protein concentration between 700-1000 ug/ml. Briefly, standards and samples are dispensed and Working Reagent is added to the samples. After 30 minutes of incubation at 37° C., absorbance is measured with a microplate reader (Clariostar®, BMG) at 562 nm. Mitochondrial complex I activity is measured with Complex I enzyme activity microplate assay Kit (Abcam) according to the manufacture's protocol. This assay follows the oxidation of NADH to NAD coupled to the reduction of a specific colorimetric dye, leading to an increase in absorbance at 450 nm. In brief, 200 ul of each sample (adjusted to 700-1000 ug/ml of total protein amount) is incubated for 3 hours. After that, wells are washed several times and incubated with Assay Solution provided with the kit (composed by NADH and the specific dye). For the determination of mitochondrial complex I activity, colorimetric increase of Optical Density (OD) at 450 nm in a kinetic reaction along 1 hour is measured with a microplate reader (Clariostar©, BMG). Results are calculated as the rate of increase in OD at 450 nm between two points in the linear zone over time. The percentage of mitochondrial complex I activity relative to basal conditions after the treatment with […] (PEP-1, H-[SEQ ID. NO. 2]-NH2) is represented in Table 9. These values represent the mean for at least three independent assays.

[2] = system: Human Dermal Fibroblasts (HDFa); experiment: Mitochondrial membrane potential in HDFa, JC-1 fluorescence assay; assay type: cell-based; conditions: 0.5 mg/ml, 16 hours
Protocol: In Vitro Study of Increasing the Mitochondrial Membrane Potential in Human Dermal Fibroblasts (HDFa) by an Immunofluorescence Assay.
Human Dermal Fibroblasts from adult (HDFa, Life Technologies) are seeded at a density of 6,000 cells/well (3 wells per condition) in 96-well plates. Cells are seeded in culture medium M106 with Low Serum Growth Supplement (Life Technologies) during 24 hours at 37° C. in 5% CO2 humidified air. […]. Non-treated cells incubated with medium alone are used as basal conditions.
After 16 hours of treatment, cells are used to quantify mitochondria membrane potential by using JC-1 mitochondrial membrane potential assay kit (Abcam) according to the manufacturer's protocol. Briefly, cells are incubated with a JC-1 working solution prepared with Supplemented Dilution Buffer in the presence of the treatment with the peptide at 0.5 mg/ml at 37° C. 5% CO2 for 30 minutes. […]
Cells are imaged and mitochondrial membrane potential is measured using Operetta® High Content Imaging System (PerkinElmer, Inc). […] Cell number is quantified by using Hoechst 33342 (ThermoFisher Scientific) staining, a cell-permeant nuclear counterstain that emits blue fluorescence at 460 nm when bound to dsDNA and is excited at 350 nm. For each image, intensity fluorescence from energized and depolarized cells is quantified and normalized against the number of nuclei. […]

[3] = system: PER2 (period circadian clock 2); experiment: PER genes expression in young and old HEKa, real time PCR: PER2; assay type: cell-based, Human; conditions: 0.5 mg/ml
Protocol: In Vitro Study of PER Genes Expression in Young and Old Human Epidermal Keratinocytes (HEKa) Using Real Time PCR Arrays. Human Epidermal Keratinocytes, (HEKa) cells (Life Technologies) from donor one and donor two are seeded at 3.0×10^5 cells/well in 12-well plates and incubated in culture medium, Keratinocyte growth medium supplemented with Mix C39016-CaCl2 solution (Promocell). For synchronization, cells were subjected to two alternative cycles of 12 hours each at 37° C. in 5% CO2 humidified air (day mode) and 33° C. in 5% CO2 humidified air (night mode). 12 hours after starting synchronization, cells are incubated with the synthetic peptide […] (PEP-1, H-[SEQ ID. NO. 2]-NH2) at 0.5 mg/ml in culture medium. Cells treated with medium alone are used as basal condition. At the end of synchronization, cell lysates are collected at 7:30 hour (early morning point). […] After RNA elution, quantification and analysis of purity of RNA samples are performed with a nanodrop (Thermo). […] SYBR Green binds to double-stranded DNA molecules and emits fluorescence which is quantified, and the fluorescence intensity is proportional to the amount of the product in the PCR reaction. […] Fold change relative to the expression of the sample genes and reference genes is calculated using normalized expression (ΔΔ(Ct)) method using CFX Manager SoftwareTM (BioRad).

H-Phe-Trp-Met-Lys-Arg-Lys-Arg-Val-Pro-NH2 (H-FWMKRKRVP-NH2) [PEP-1]
Percentage of mitochondrial complex I activity relative to basal condition (%) ([1]; 0.1 mg/mL): 83.23% | Percentage of mitochondrial complex I activity relative to basal condition (%) ([1]; 0.5 mg/mL): 71.68% | Percentage of mitochondrial complex I activity relative to basal condition (%) ([1]; 1 mg/mL): 55.35% | Percentage of MMP relative to basal conditions (%) [2]: 130.98% | Fold induction at 7:30 h respect to Basal condition (%) ([3]; PER2, HEKa from donor one): 172.0% | Fold induction at 7:30 h respect to Basal condition (%) ([3]; PER2, HEKa from donor two): 292.0%

Source: patent US11896704B2, “Compounds useful for the treatment and/or care of the skin, hair, nails and/or mucous membranes” (LUBRIZOL ADVANCED MATERIALS, INC., priority 2017, dated 2024)
